Holding throughout (type): cell-based
One test has as its system HCT-116 tumor cells. As to the kind of experiment: Cell proliferation inhibition assay (MTT), HCT-116. The following applies: HCT-116 cells, 48 hours. The procedure:
(§1) Case Study I: Antitumor Cell Activity of Naphthalene Diamides • Compounds of Tables 1 and 2 were synthesized in multiple steps according to the procedure of Examples 1-3 using relevant antitumor cell activity assays. The compound synthesized above was tested for IC50 concentration (MIC) against HCT-116, MCF-7, Calu-6 and A549 tumor cells by in vitro cellular activity.
(§2) Case Study II: Cell Proliferation Inhibition Assay • Based on MTT method, briefly plating HCT-116, MCF-7 and A549 cells in a concentration of 2×10^4/ml with complete culture medium in 96-well plates overnight. The volume for each well was 100 μL. Cells were treated with compounds in concentrations of 40, 20, 10, 5, 2.5, 1.25 μmol/L, and cultured at 37° C., 5% CO2 for 48 hours, followed by adding 20 μL of 5 mg/ml MTT reagent per well and continuing to culture for 2˜4 h, respectively. As a control, DMSO solvent was added in an equal volume with concentration of 0.1%. Each sample was tested as 5 replicate wells. Then the supernatant was discarded, and DMSO was added in a volume of 150 μL, followed by shaking and mixing for 15 mins. The absorbance (A) value (A value is proportional to the number of living cells) is measured by a microplate reader at the wavelength of 570 nm, and the average value is taken. The relative cell proliferation inhibition rate (%)=(control group A570—experimental group A570)/control group A570×100%. The concentration of 50% inhibition rate (IC50) of the compound was calculated by the repetition of at least 3 times. The positive control was used as 5-flucrouracil.

The test system of another test is MCF-7 tumor cells. Briefly: Cell proliferation inhibition assay (MTT), MCF-7. The following applies: MCF-7 cells, 48 hours. The procedure:
as §1, §2

The test system of the next test is A549 tumor cells. As to the kind of experiment: Cell proliferation inhibition assay (MTT), A549. The following applies: 48 hours. The procedure: as §1, §2
The test system of another test is Calu-6 tumor cells. As to the kind of experiment: In vitro antitumor cell activity, Calu-6. The following applies: Calu-6 cells. The protocol: as §1, §2

As usually defined, the IC50 is the point on the concentration scale where inhibition reaches its midpoint. The low end stands for inhibition by little substance, the high end for a need for much substance.

Regarding `O=C(Nc1ccc2cc(C(=O)Nc3nccs3)ccc2c1)c1ccc(F)cc1` [ABC-02], in the test on HCT-116 tumor cells, the IC50 stood at 10 µM.

As for `Cc1cccc(C(=O)Nc2ccc3cc(C(=O)N4CCN(C)CC4)ccc3c2)c1` [ABC-05], the half-inhibitory concentration (IC50) in the test with HCT-116 tumor cells was determined as 10 µM.

On to `O=C(NCc1ccc(Cl)nc1)c1ccc2cc(NC(=O)c3ccc(F)cc3)ccc2c1` [ABC-07], for which the results for the IC50 in the test on MCF-7 tumor cells and in the test with HCT-116 tumor cells were 7.6 µM and 5.8 µM, respectively.

For the compound `Cc1cccc(C(=O)Nc2ccc3cc(C(=O)NCc4ccc(Cl)nc4)ccc3c2)c1` [ABC-09], the IC50 in the test with MCF-7 tumor cells came to 3.2 µM; in the test on HCT-116 tumor cells, 3.5 µM.

Regarding `O=C(Nc1ccc2cc(C(=O)N3CCOCC3)ccc2c1)c1ccc(F)cc1` [ABC-11], the IC50 in the test with MCF-7 tumor cells turned out to be 3.7 µM; in the test on A549 tumor cells, 28.1 µM; in the test on HCT-116 tumor cells it was 5.5 µM.

As for `COc1ccc(OC)c(C(=O)Nc2ccc3cc(C(=O)NCc4ccc(Cl)nc4)ccc3c2)c1` [ABC-15], the IC50 in the test with MCF-7 tumor cells is 3.5 µM; in the test on HCT-116 tumor cells it was 6.6 µM.

Consider `O=C(NCc1ccc(Cl)nc1)c1ccc2cc(NC(=O)c3cccc(C(F)(F)F)c3)ccc2c1` [ABC-17], for which the IC50 in the test with MCF-7 tumor cells was 3.2 µM; in the test on HCT-116 tumor cells, 3.6 µM.

For `CN1CCN(C(=O)c2ccc3cc(NC(=O)c4cccc(C(F)(F)F)c4)ccc3c2)CC1` [ABC-20], the IC50 came out at 2.7 µM with MCF-7 tumor cells and 24.9 µM in the test on HCT-116 tumor cells.

On to `O=C(Nc1ccc2cc(C(=O)NC3CC3)ccc2c1)c1ccc(F)cc1` [ABC-21], for which the IC50 in the test on A549 tumor cells and in the test with Calu-6 tumor cells was 48.5 µM throughout.

The compound `O=C(Nc1ccc2cc(C(=O)NC3CCCCC3)ccc2c1)c1cccc(C(F)(F)F)c1` [ABC-24] returned an IC50 with HCT-116 tumor cells of 5 µM.

As to `O=C(Nc1ccc2cc(C(=O)Nc3cccc(C(F)(F)F)c3)ccc2c1)c1cccc(C(F)(F)F)c1` [ABC-26], the IC50 in the test on HCT-116 tumor cells was 3.5 µM.

As to `COc1ccc(C(=O)Nc2ccc3cc(C(=O)NC4CC4)ccc3c2)cc1` [ABC-27], the IC50 in the test with MCF-7 tumor cells was 2.65 µM; in the test on HCT-116 tumor cells, 38.8 µM.

The compound `O=C(Nc1ccc2cc(C(=O)NC3CC3)ccc2c1)c1cccc(C(F)(F)F)c1` [ABC-28] returned an IC50 in the test on HCT-116 tumor cells of 5 µM.

In the test with HCT-116 tumor cells, `COc1ccc(C(=O)Nc2ccc3cc(C(=O)NC(C)C)ccc3c2)cc1` [ABC-29] registered an IC50 of 8 µM.

`COc1ccc(C(=O)Nc2ccc3cc(C(=O)Nc4nccs4)ccc3c2)cc1` [ABC-31] showed a half-inhibitory concentration (IC50) in the test with MCF-7 tumor cells of 3.9 µM.

Take `Cc1cccc(C(=O)Nc2ccc3cc(C(=O)Nc4nccs4)ccc3c2)c1` [ABC-32]: the IC50 was 2.9 µM in the test with MCF-7 tumor cells, 14.2 µM with A549 tumor cells, 5.5 µM in the test on HCT-116 tumor cells and 28.1 µM in the test on Calu-6 tumor cells.

Consider `COc1ccc(C(=O)Nc2ccc3cc(C(=O)Nc4cccc(C(F)(F)F)c4)ccc3c2)cc1` [ABC-33], for which the IC50 with MCF-7 tumor cells came to 6.6 µM; with HCT-116 tumor cells it was 3 µM.

With `O=C(Nc1ccc2cc(C(=O)Nc3nccs3)ccc2c1)c1cccc(C(F)(F)F)c1` [ABC-34], the IC50 is 1.6 µM with MCF-7 tumor cells and 5.2 µM in the test on HCT-116 tumor cells.

For `COc1ccccc1C(=O)Nc1ccc2cc(C(=O)NC(C)C)ccc2c1` [ABC-38], the IC50 with MCF-7 tumor cells worked out at 9 µM; in the test with HCT-116 tumor cells, 5 µM.

Compound `O=C(Nc1ccc2cc(C(=O)N3CCOCC3)ccc2c1)c1ccc(Cl)c(Cl)c1` [ABC-40] showed an IC50 with Calu-6 tumor cells of 12.4 µM.

For the compound `CN1CCN(C(=O)c2ccc3cc(NC(=O)c4ccc(Cl)c(Cl)c4)ccc3c2)CC1` [ABC-42], the IC50 amounted to 3.7 µM in the test with A549 tumor cells, 20 µM in the test with HCT-116 tumor cells and 7.1 µM in the test on Calu-6 tumor cells.

For `O=C(Nc1ccc2cc(C(=O)NC3CC3)ccc2c1)c1cccc(Cl)c1` [ABC-43], the IC50 in the test with A549 tumor cells was found to be 25.2 µM; in the test on Calu-6 tumor cells, 25.3 µM.

In the test with Calu-6 tumor cells, `O=C(Nc1ccc2cc(C(=O)NC3CC3)ccc2c1)c1ccc(Cl)c(Cl)c1` [ABC-44] displayed an IC50 of 5.5 µM.

In the case of `O=C(Nc1ccc2cc(C(=O)Nc3nccs3)ccc2c1)c1cccc(Cl)c1` [ABC-45], the IC50 came to 6.7 µM in the test on MCF-7 tumor cells, 4.3 µM in the test with A549 tumor cells, 10 µM with HCT-116 tumor cells and 12.6 µM in the test with Calu-6 tumor cells.

In the case of `O=C(Nc1ccc2cc(C(=O)Nc3nccs3)ccc2c1)c1ccc(Cl)c(Cl)c1` [ABC-46], the IC50 is 6.2 µM with MCF-7 tumor cells, 1.6 µM in the test on A549 tumor cells and 2 µM with HCT-116 tumor cells.

As for `CC(C)NC(=O)c1ccc2cc(NC(=O)c3cccc(Cl)c3)ccc2c1` [ABC-47], the figures for the IC50 in the test on A549 tumor cells and with HCT-116 tumor cells were 12.4 µM and 2.5 µM, respectively.

For the compound `CC(C)NC(=O)c1ccc2cc(NC(=O)c3ccc(Cl)c(Cl)c3)ccc2c1` [ABC-48], the IC50 with A549 tumor cells is 12.6 µM; with HCT-116 tumor cells it was 3.9 µM.

(Values after patent US11274078B2, “Drug for treating tumor diseases and having antibacterial antivirus anti-inflammatory effects” (priority 2017, dated 2022).)
